Source: US20150323520A1, “DIAGNOSIS OF KIDNEY TRANSPLANT ACUTE REJECTION” (The Trustees of the Stevens Institute of Technology, priority 2014, published 2015)

Assay: Mannitol in urine of kidney transplant patients the day after surgery (SERS / ESI-MS)
Assay type: in vivo
From the text: FIG. 2 is a graph 200 showing SERS spectra for patients who have received kidney transplants and are experiencing AR. The graph 200 plots Raman intensity, in arbitrary units (“a.u.”), along a vertical axis 210 against Raman shift, in cm^−1, along a horizontal axis 220. As a baseline, the chart 200 includes a background spectrum 230 that may be measured when a SERS sensor (e.g., the device 100 of FIG. 1) is immersed in water. The chart 200 also includes three SERS spectra 240, 250, 260 that may be measured when the same SERS sensor is immersed in urine samples of three AR patients. It may be observed that each of the three SERS spectra 240, 250, 260 includes a corresponding peak 242, 252, 262, at a value of about 1360 cm^−1 along the horizontal axis 220. FIG. 3 is a graph 300 showing SERS spectra for patients who have received kidney transplants and are not experiencing AR. The graph 300 plots Raman intensity, in arbitrary units (“a.u.”), along a vertical axis 310 against Raman shift, in cm^−1, along a horizontal axis 320. As a baseline, the chart 300 includes a background spectrum 330 that may be measured when a SERS sensor (e.g., the device 100 of FIG. 1) is immersed in water (e.g., the same background spectrum as is shown in FIG. 2). The chart 300 also includes three SERS spectra 340, 350, 360 that may be measured when the same SERS sensor is immersed in urine samples of three kidney transplant recipients who are not experiencing AR. It may be observed that the three SERS spectra 340, 350, 360 lack a peak at a value of 1360 cm^−1 along the horizontal axis 320. […] The chart 500 includes a SERS spectrum 530 measured when a SERS sensor (e.g., the device 100 of FIG. 1) is immersed in a urine sample of a kidney transplant recipient who is experiencing graft failure. […] The spectra 610, 620, 630 plot intensity, an expression of relative abundance expressed as a percentage, along a vertical axis 640 against mass-to-charge ratio m/z, an expression of the ratio of atomic mass to charge number, which is a dimensionless quantity, along a horizontal axis 650. […]

mannitol in the urine (patients experiencing acute rejection (AR), urine 24 hours after surgery, mannitol (e.g., 20 grams) given during kidney transplant surgery): high levels | metabolism of mannitol (patients experiencing graft failure, SERS peak at 1360 cm^-1 in urine (FIG. 5)): do not metabolize mannitol well | mannitol in patients' urine (transplant patients whose surgery is successful (no AR), urine 24 hours after surgery, mannitol (e.g., 20 grams) given during kidney transplant surgery): barely detectable
SMILES: OC[C@@H](O)[C@@H](O)[C@H](O)[C@H](O)CO [mannitol]
